Assay [1] concerns p53. Briefly: Gel shift assay with nuclear extracts and p53 consensus probe. Format: cell-based, human. On the procedure: (§1) Either purified p53 protein or nuclear extracts were used in the gel shift assays. For preparation of nuclear extracts, cells treated either with DMSO or different agents (doxorubicin, ARC and actinomycin D) were harvested 24 hours later and lysed in hypotonic buffer (10 mM HEPES pH 7.9, 1.5 mM MgCl2, 10 mM KCl, 0.2 mM PMSF, 0.5 mM DTT, 1 mM Na3VO4, 1 mM NaF, 1 mM Aprotinin and 1 mM Leupeptin), nuclei pelleted and treated with high-salt buffer (20 mM HEPES pH 7.9, 20% (v/v) glycerol, 1.5 mM MgCl2, 0.5 M KCl, 0.2 mM EDTA, 0.2 mM PMSF, 0.5 mM DTT, 1 mM Na3VO4, 1 mM NaF, 1 mM Aprotinin and 1 mM Leupeptin). Nuclear extracts (10 μg) or purified p53 protein (100 ng) were incubated with 0.5 ng of p53 consensus double-stranded oligos (5′-TACAGAACATGTCTAAGCATGCTGGGGACT-3′; Santa Cruz Biotechnology) that were labeled with [γ^32P]ATP. As a control, anti-p53 antibody (PAb421, EMD Biosciences) was used to supershift the p53/DNA complex. The reaction mixtures were resolved on a 4% acrylamide DNA-retardation gel, dried and exposed to X-ray film in the presence of intensifying screen.
Although the effects of ARC were p53-independent, ARC did affect some properties of p53. […] This is in contrast to actinomycin D, which is known to enhance the DNA binding ability of p53 [22]. […] To determine if ARC retains p53 in the cytoplasm, which may lead to decreased binding in the gel shift assays, p53 levels in nuclear lysates were examined.

Assay [2] has as its system SV40-transformed MRC-5 human fetal lung fibroblasts. The experiment in a line: Apoptosis assays in SV40-transformed MRC-5 fibroblasts. In kind it is cell-based. The note with it: 24 hours. On the procedure:
(§2) Immunoblotting was performed as described with antibodies specific for p53 (sc-126 HRP; Santa Cruz), hdm2 (sc-965; Santa Cruz), p21 (556431; BD Pharmingen), Sp1 (sc-59; Santa Cruz), survivin (sc-10811; Santa Cruz), phospho RNA polymerase II (4735; Cell Signaling), total RNA polymerase II (8WG16; a gift from Dr. Schlegel, University of Illinois at Chicago), α-tubulin (T9026; Sigma), cleaved caspase-3 (9664; Cell Signaling), caspase-9 (9502; Cell Signaling) and β-actin (A5441; Sigma) antibodies.
Apoptosis was detected either by DAPI (4′,6-diamidino-2-phenylindole) staining or by Flow Cytometry after PI (Propidium Iodide) staining. For DAPI staining, all treatments (DMSO or ARC) were done in triplicates in 6-well plates and cells were stained with DAPI and visualized by fluorescent microscopy. Four random fields for each sample were photographed and at least 500 cells per field were counted to estimate apoptosis. The data is represented as mean±Standard deviation (sd).
The ability of ARC to induce apoptosis in wild type and SV40-transformed MRC-5 human fetal lung fibroblasts was evaluated. Twenty-four hours after treatment with ARC, transformed fibroblasts underwent robust apoptosis (around 50% and 70%, respectively, with 5 and 10 μM of ARC) (FIGS. 4A and B). […] The transformed cell types may be more dependent on the survivin levels for their survival than their wild type counterparts and thus the reduction in these levels could be lethal to these cells.

The target in assay [3] is T1, P-TEFb (Cdk9/Cyclin T1) (Homo sapiens, UniProt P50750).
T1 construct: gift from Dr. Nekhai (Howard University)
The experiment in a line: P-TEFb kinase assay with GST-CTD as substrate. Format: biochemical. Particulars: 30° C., 1 hour. On the procedure:
Purified P-TEFb (Cdk9/Cyclin T1) protein and GST-CTD (GST-tagged C-terminal domain of RNA polymerase II) expression plasmid were gifts from Dr. Nekhai (Howard University). GST-CTD protein was expressed in BL21 E. coli (Stratagene) and purified using a GST protein purification kit (Amersham Biosciences). The kinase assay was performed at 30° C. for 1 hour in the presence of P-TEFb with or without the addition of ARC. The phosphorylation levels of GST-CTD were detected with anti-phospho RNA polymerase II antibody (4735; Cell Signaling).
(§3) It is known that DRB and flavopiridol inhibit transcription by blocking the kinase activity of P-TEFb, which in turn leads to decreased phosphorylation of RNA polymerase II C-terminal domain (CTD). To determine if ARC operates by a similar mechanism, a kinase assay was performed with purified P-TEFb using GST-CTD (GST tagged C-terminal domain of RNA polymerase II) as the substrate. […] To evaluate this effect in vivo, HCT-116 cells were treated with ARC for 3 hours and analyzed levels of phospho-RNA polymerase II by immunoblotting. While the total amount of RNA polymerase II remained unchanged, phosphorylation of the RNA polymerase II CTD decreased upon ARC treatment (FIG. 2D), consistent with the in vitro kinase assay.

Assay [4] relates to p53. The experiment in a line: Gel shift assay with purified p53 phosphorylated by P-TEFb. The note with it: purified p53, different concentrations. In kind it is binding. On the procedure:
as §1
In order to evaluate this activity, an in vitro kinase assay was performed with purified p53 protein and P-TEFb in the presence of different concentrations of ARC.

Assay [5] relates to phospho-RNA polymerase II. Briefly: Immunoblot of phospho-RNA polymerase II in HCT-116 cells. In kind it is cell-based, human. The note with it: 3 hours. The procedure:
as §2, §3
(A western blot detects proteins with antibodies after separation by electrophoresis.)

The subject of assay [6] is HIV Tat-mediated transcription. The experiment in a line: HIV Tat-mediated transcription in HeLa MAGI cells. Format: cell-based, human immunodeficiency virus (HIV). The note with it: 18 hours. On the procedure:
FIG. 10. ARC has antiviral activity against HIV (human immunodeficiency virus) in a cell culture model. HeLa MAGI cells were infected with Adeno-Tat and treated with different amounts of ARC for 18 hours after which, MTT was added to measure cell viability and B-Gal expression was measured by ONPG assay. B-Gal expression is indicative of HIV Tat transactivation ability. Assays were done in quadruplicates.

T1 sequence (P50750 whole entry, species assumed): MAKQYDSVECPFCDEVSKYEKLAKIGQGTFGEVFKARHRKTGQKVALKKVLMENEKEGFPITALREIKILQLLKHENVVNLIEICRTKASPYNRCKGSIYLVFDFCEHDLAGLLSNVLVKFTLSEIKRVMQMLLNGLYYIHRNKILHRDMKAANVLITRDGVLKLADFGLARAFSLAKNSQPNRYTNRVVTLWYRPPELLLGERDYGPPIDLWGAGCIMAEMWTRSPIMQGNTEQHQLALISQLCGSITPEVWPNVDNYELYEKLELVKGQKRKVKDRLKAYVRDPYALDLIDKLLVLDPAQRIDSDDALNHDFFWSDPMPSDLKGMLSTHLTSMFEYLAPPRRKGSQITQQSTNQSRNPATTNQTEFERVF
T1 sequence (O60563 whole entry partner, species assumed): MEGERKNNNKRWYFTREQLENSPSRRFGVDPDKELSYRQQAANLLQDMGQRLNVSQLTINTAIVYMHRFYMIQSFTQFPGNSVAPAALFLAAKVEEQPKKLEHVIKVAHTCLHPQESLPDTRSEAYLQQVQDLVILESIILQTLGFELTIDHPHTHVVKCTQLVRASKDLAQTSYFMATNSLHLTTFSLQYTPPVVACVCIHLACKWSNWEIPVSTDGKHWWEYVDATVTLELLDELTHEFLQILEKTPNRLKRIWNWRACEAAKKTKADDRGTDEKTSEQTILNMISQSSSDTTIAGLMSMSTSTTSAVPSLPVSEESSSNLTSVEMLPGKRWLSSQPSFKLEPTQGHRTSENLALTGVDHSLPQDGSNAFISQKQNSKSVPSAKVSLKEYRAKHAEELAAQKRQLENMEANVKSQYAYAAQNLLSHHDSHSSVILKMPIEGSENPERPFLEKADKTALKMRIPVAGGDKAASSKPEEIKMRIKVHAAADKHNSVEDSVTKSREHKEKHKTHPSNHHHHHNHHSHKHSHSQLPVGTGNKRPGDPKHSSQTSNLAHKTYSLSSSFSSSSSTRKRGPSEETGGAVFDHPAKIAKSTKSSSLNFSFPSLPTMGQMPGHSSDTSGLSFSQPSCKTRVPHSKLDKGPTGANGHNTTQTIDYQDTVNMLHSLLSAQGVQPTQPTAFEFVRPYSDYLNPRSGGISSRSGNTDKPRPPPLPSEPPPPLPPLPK

As for `NNc1c(C(N)=O)c2c(N)ncnc2n1[C@@H]1O[C@H](CO)[C@@H](O)[C@H]1O` [ARC, 4-amino-6-hydrazino-7-beta-D-ribofuranosyl-7H-pyrrolo[2,3-d]-pyrimidine-5-carboxamide], the “DNA binding ability of p53, agent alone” value in assay [1] (MCF-7 nuclear extracts) was “did not influence the DNA binding ability of p53”. The “doxorubicin-induced DNA binding ability of p53” value in assay [1] (nuclear extracts from HCT-116 and MCF-7 cells, with doxorubicin) is reported as “inhibited the doxorubicin-induced DNA binding ability of p53”. Further, the “apoptosis (DAPI staining)” value in assay [2] (5 μM) is “around 50%”; in assay [2] (10 μM), about 70%. Besides, the “cleaved caspase-3” value in assay [2] is listed as “appearance of cleaved caspase-3 was observed”. Besides, the survivin levels entry in assay [2] (wild type and SV40-transformed MRC-5 fibroblasts) is “further reduced”. Besides, in assay [3], the “phosphorylation of GST-CTD by P-TEFb” value is on record as “potently decreased the phosphorylation of GST-CTD”. Besides, in assay [4], the “DNA binding of p53 phosphorylated by P-TEFb” value is given as “inhibited this process in a dose-dependent manner”. Moreover, the “phosphorylation of the RNA polymerase II CTD in cells” value in assay [5] is listed as “decreased”. Moreover, the “HIV Tat-mediated transcription (B-Gal expression)” value in assay [6] (HeLa MAGI cells infected with Adeno-Tat) is recorded as “efficiently inhibited HIV Tat-mediated transcription in a dose-dependent manner”. Also, in assay [6] (HeLa MAGI cells), the “rate of transcription versus cell viability (MTT)” value is listed as “affected more than the viability of cells”.

For the origin of these results see patent US8207136B2, “Nucleoside compounds and methods of use thereof” (The Board of Trustees of the University of Illinois, priority 2005, dated 2012).
